Test results taken from patent publication US4146501A, “Process for isolating and purifying taste bud receptors for screening and evaluating tastants” (priority 1976, dated 1979).
Where two headings read alike, the source gives them in different places.

Columns and labels:
[1] = target: taste bud P4(B) subfractions; assay: Specific binding: competition of 14C sugars or SSS with unlabeled homologous and heterologous sugars, Scatchard analysis; set-up: species or system bovine; conditions: for Kd: mean ± 1 SEM; for specific binding (competition of 14C sugar or SSS with homologous unlabeled sugar or SSS): taste bud P4(B), FIG. 7; for Inhibition (%) of 14C Fructose binding by unlabelled sugar / Inhibition (%) of 14C Glucose binding by unlabelled sugar / Inhibition (%) of 14C Sucrose binding by unlabelled sugar: maximal concentration of unlabelled sugar, range of values; for Relative Binding Inhibition: homologous set at 100
[2] = tested on: taste bud subfraction P4(B); assay: Binding inhibition of 14C sucrose by various substances; set-up: species or system bovine
[3] = man; cited from earlier work
[4] = tested on: taste bud filtrates and B subfractions [P2,3,4(B)]; assay: Binding of 14C sugars to taste bud filtrates and B subfractions; set-up: species or system bovine; conditions: Bud; for 14C sugar binding: 30 min at 30° C
Procedure: (§1) The following procedure was utilized in tastant evaluation according to the process of this invention: Protein concentrations were determined by the methods of Lowry et al., (1951) J. Biol. […] According to density, physical appearance as determined by using electron microscopic morphology enzymatic activity and chemical analysis, B subfractions from taste buds and epithelial tissues achieved the greatest membrane purification compared with other subfractions. Among the taste bud B subfractions, P4(B) was morphologically more homogeneous with respect to membranes than P3(B) whereas P2(B) was the least homogeneous of all. Epithelial tissue B subfractions contained mainly fibrous tissue and few differences were found in morphology, density, enzymatic activity or chemical analysis between P2(B) or P4(B) subfractions. Taste bud and epithelial tissue D subfractions contained relatively few membrane fragments compared to the large amount of other cellular organelles present and therefore were not included in these studies. […] Each filtrate and subfraction was washed three times with calcium free, 0.2 M Krebs-Ringer bicarbonate (KRB) pH 7.4, suspended in the same buffer in a final volume of 2 ml and frozen in liquid nitrogen. No detectable change in binding characteristics from suspensions of taste bud or epithelial tissue fractions was observed after storage at -80° for as long as two months. All binding studies were carried out in plastic micro test tubes in a constant temperature shaking bath. For these studies KRB, suspensions of the initial filtrates, subfractions and ^14 C labeled and/or unlabeled sugars were incubated in a final volume of 100 μl. After incubation the tubes were placed in an ice bath, centrifuged, the supernatant aspirated and 10 μl KRB layered on top of the pellet. The KRB was then aspirated, the top of the test tube cut off with a razor blade just above the bellet, placed into 10 ml Aquasol (New England Nuclear Corp., Boston, Mass.) and the radioactivity determined in a liquid scintillation spectrophotometer. Controls, without filtrates or subfractions, were also included. […] The tubes were then placed in an ice bath for 3 minutes, and then centrifuged at 15,000 rpm for 6 min.

[5] = tested on: non-taste bud bearing epithelial tissue filtrates and B subfractions [P2,4(B)]; assay: Binding of 14C sugars to non-taste bud bearing epithelial tissue filtrates and B subfractions (control); set-up: species or system bovine; conditions: Epi; for 14C sugar binding: 30 min at 30° C
Procedure: as §1

[6] = behavioral basis, cow; cited from earlier work
[7] = Filtrate, 14C glucose 200 μM, fructose 400 μM, sucrose 26 μM
[8] = Scatchard plot, single class of sites, read-out: Kd (dissociation constant)
[9] = section FRUCTOSE (as the 14C sugar per footnote) with each unlabelled sugar
[10] = section SUCROSE (as the 14C sugar per footnote) with each unlabelled sugar

Structure (SMILES) | specific binding (competition of 14C sugar or SSS with homologous unlabeled sugar or SSS) [1] | 14C sugar binding [4, 7] [cpm/mg protein] | Relative enrichment of sugar binding compared to the initial filtrate ([4]; P2(B)) | 14C sugar binding ([4]; P2(B)) [cpm/mg protein] | Relative enrichment of sugar binding compared to the initial filtrate ([4]; P3(B)) | 14C sugar binding ([4]; P3(B)) [cpm/mg protein] | Relative enrichment of sugar binding compared to the initial filtrate ([4]; P4(B)) | 14C sugar binding ([4]; P4(B)) [cpm/mg protein] | competition of unlabeled sugar with sucrose binding ([1]; FIG. 8, in words) | Kd [1, 8] [mM] | Inhibition (%) of 14C Fructose binding by unlabelled sugar [1] | Inhibition (%) of 14C Glucose binding by unlabelled sugar [1] | Inhibition (%) of 14C Sucrose binding by unlabelled sugar [1] | Relative Binding Inhibition [1, 9] [%] | Relative Binding Inhibition [1, 10] [%] | q (concentration of sugar or SSS bound per mg subfraction protein) ([1]; single class of sites) [mM/mg protein] | 14C sugar binding [5, 7] [cpm/mg protein] | Relative enrichment of sugar binding compared to the initial filtrate ([5]; P2(B)) | inhibition of 14C sucrose binding [2] | Recognition thresholds in man [3] [M] | other results
O=C(O)CN(CCN(CC(=O)O)CC(=O)O)CC(=O)O [EDTA, ethylenediaminetetraacetic acid] | – | – | – | – | – | – | – | – | – | – | – | – | – | – | – | – | – | – | approximately 40% | – | –
[Cl-].[Na+] [NaCl] | – | – | – | – | – | – | – | – | – | – | – | – | – | – | – | – | – | – | ~50% | – | –

Now from value to compound, other results behind:

specific binding (competition of 14C sugar or SSS with homologous unlabeled sugar or SSS) [1] | 14C sugar binding [4, 7] [cpm/mg protein] | Relative enrichment of sugar binding compared to the initial filtrate ([4]; P2(B)) | 14C sugar binding ([4]; P2(B)) [cpm/mg protein] | Relative enrichment of sugar binding compared to the initial filtrate ([4]; P3(B)) | 14C sugar binding ([4]; P3(B)) [cpm/mg protein] | Relative enrichment of sugar binding compared to the initial filtrate ([4]; P4(B)) | 14C sugar binding ([4]; P4(B)) [cpm/mg protein] | competition of unlabeled sugar with sucrose binding ([1]; FIG. 8, in words) | Kd [1, 8] [mM] | Inhibition (%) of 14C Fructose binding by unlabelled sugar [1] | Inhibition (%) of 14C Glucose binding by unlabelled sugar [1] | Inhibition (%) of 14C Sucrose binding by unlabelled sugar [1] | Relative Binding Inhibition [1, 9] [%] | Relative Binding Inhibition [1, 10] [%] | q (concentration of sugar or SSS bound per mg subfraction protein) ([1]; single class of sites) [mM/mg protein] | 14C sugar binding [5, 7] [cpm/mg protein] | Relative enrichment of sugar binding compared to the initial filtrate ([5]; P2(B)) | Structure (SMILES) | inhibition of 14C sucrose binding [2] | Recognition thresholds in man [3] [M] | other results
occurred | – | – | – | – | – | – | – | – | – | – | – | – | – | – | – | – | – | O=S(=O)(O)NC1CCCCC1 [CYCLAMATE, cyclamate] | – | – | Kd ([1]; non-linear Scatchard plot, primary class of binding sites, read-out: Kd (dissociation constant), K1): 11.7 ± 2.4 mM; Kd ([1]; non-linear Scatchard plot, secondary class of binding sites, read-out: Kd (dissociation constant), K2): 32.6 ± 3.9 mM; q (concentration of sugar or SSS bound per mg subfraction protein), K1 ([1]; primary class of binding sites): 4.0 ± 0.9 mM/mg protein; q (concentration of sugar or SSS bound per mg subfraction protein), K2 ([1]; secondary class of binding sites): 6.6 ± 1.4 mM/mg protein
occurred | 153000 | 3.7 | 569000 | 8.5 | 1.3e+06 | 17.8 | 2.72e+06 | did not | 1.8 ± 0.9 | 70-80% | 36-40% | 14-20% | 100 | 59 | 10.5 ± 1.2 | 88000 | 1.1 | O=C(CO)[C@@H](O)[C@H](O)[C@H](O)CO [Fructose, fructose] | – | 0.01 to 0.03 | competition of unlabeled sugar with glucose binding ([1]; FIG. 8, in words): competed with glucose; Inhibition (%) of 14C Fructose binding by unlabelled sugar ([1]; listed as fructose): about 80%; 14C sugar binding ([5]; P2(B)): 95000 cpm/mg protein; Relative enrichment of sugar binding compared to the initial filtrate ([5]; P4(B)): 0.9; 14C sugar binding ([5]; P4(B)): 78000 cpm/mg protein; bovine discrimination thresholds [6]: 0.06 M
occurred | 37000 | 3.2 | 120000 | 9.7 | 360000 | 9.4 | 348000 | did not compete | 3.4 ± 1.1 | 14-20% | 70-80% | 14-20% | 51 | 32 | 2.5 ± 0.5 | 22000 | 1.3 | OC[C@H]1OC(O)[C@H](O)[C@@H](O)[C@@H]1O (stereo partly drawn) [Glucose, glucose] | – | 0.01 to 0.03 | competition of unlabeled sugar with fructose binding ([1]; FIG. 8, in words): did not compete; Inhibition (%) of 14C Glucose binding by unlabelled sugar ([1]; listed as glucose): eighty; Relative Binding Inhibition ([1]; section GLUCOSE (as the 14C sugar per footnote) with each unlabelled sugar): 100%; 14C sugar binding ([5]; P2(B)): 29000 cpm/mg protein; Relative enrichment of sugar binding compared to the initial filtrate ([5]; P4(B)): 0.8; 14C sugar binding ([5]; P4(B)): 17000 cpm/mg protein
